Results as given in patent US10745400B2, “Inhibition of BMP signaling, compounds, compositions and uses thereof” (Vanderbilt University, priority 2018, dated 2020).
Positions count from the first letter of the chain named. Where two headings read alike, the source gives them in different places.

Legend:
ALK2 (R206H) = molecular target: T1, ALK2 (R206H) (Homo sapiens, UniProt Q04771, R206H); test: Kinase assay (33P-ATP filter-binding), ALK2 R206H; format: biochemical; settings: R206H mutant, 20 mM; read-out: Kinase Selectivity ALK2 (R206H, 20 mM)
T1 sequence (Q04771 21-509 R206H): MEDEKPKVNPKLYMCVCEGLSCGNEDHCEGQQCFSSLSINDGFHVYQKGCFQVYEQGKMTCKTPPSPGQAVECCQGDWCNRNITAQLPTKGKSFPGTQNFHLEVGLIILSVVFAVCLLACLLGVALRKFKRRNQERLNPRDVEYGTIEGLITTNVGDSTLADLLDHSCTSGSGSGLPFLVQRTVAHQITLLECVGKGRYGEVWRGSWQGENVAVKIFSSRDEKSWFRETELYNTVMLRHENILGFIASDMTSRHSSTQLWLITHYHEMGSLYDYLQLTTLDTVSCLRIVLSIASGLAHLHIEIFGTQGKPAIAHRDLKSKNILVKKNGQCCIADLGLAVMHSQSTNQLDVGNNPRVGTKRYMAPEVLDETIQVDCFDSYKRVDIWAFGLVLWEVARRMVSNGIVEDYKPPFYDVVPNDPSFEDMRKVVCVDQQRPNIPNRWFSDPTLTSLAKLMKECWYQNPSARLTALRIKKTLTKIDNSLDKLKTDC
Protocol: (§1) The kinase assays were carried out briefly as follows. Substrate was prepared in Base Reaction Buffer (20 mM Hepes (pH 7.5), 10 mM MgCl2, 1 mM EGTA, 0.02% Brij35, 0.02 mg/ml BSA, 0.1 mM Na3VO4, 2 mM DTT, 1% DMSO). The indicated kinases was delivered into the substrate solution and allowed to gently mix. Next, the specific compound was delivered in DMSO into the kinase mixture by Acoustic technology (Echo550; nanoliter range), and allowed to incubate for 20 minutes at room temperature. Next, ^33P-ATP was delivered into the reaction mixture to initiate the reaction and allowed to incubate at room temperature. After 2 hours, the reactions were spotted onto P81 ion exchange paper and the kinase activity is detected by the filter-binding method.

ALK2 (Q207D) = molecular target: T2, ALK2 (Q207D) (Homo sapiens, UniProt Q04771, Q207D); test: Kinase assay (33P-ATP filter-binding), ALK2 Q207D; format: biochemical; settings: Q207D mutant, 20 mM; read-out: Kinase Selectivity ALK2 (Q207D, 20 mM)
T2 sequence (Q04771 21-509 Q207D): T1 sequence (Q04771 21-509 R206H) with H186R, Q187D
Protocol: as §1

ALK1/ACVRL1 = ALK1/ACVRL1 (Homo sapiens, UniProt P37023); test: Kinase assay (33P-ATP filter-binding), ALK1; format: biochemical
Protocol: as §1

ALK3/BMPR1A = ALK3/BMPR1A (Homo sapiens, UniProt P36894); test: Kinase assay (33P-ATP filter-binding), ALK3; format: biochemical
Protocol: as §1

ALK2/ACVR1 = molecular target: T3, ALK2/ACVR1 (Homo sapiens, UniProt Q04771); test: Kinase assay (33P-ATP filter-binding), ALK2; format: biochemical
T3 sequence (Q04771 21-509): T1 sequence (Q04771 21-509 R206H) with H186R
Protocol: as §1

Protein binding, mouse = format: in vitro ADME
[1] = Intrinsic clearance, human; format: in vitro ADME; settings: human
[2] = Intrinsic clearance, mouse; format: in vitro ADME; settings: mouse
Protein binding, human = format: in vitro ADME
[3] = read-out: Kinase Selectivity ALK1/ACVRL1
[4] = 1 mM, read-out: Kinase Selectivity ALK3/BMPR1A (1 mM)
[5] = 20 mM, read-out: Kinase Selectivity ALK2/ACVR1 (20 mM)
[6] = CL-Hep, value in parentheses, read-out: Intrinsic Clearance Human (CL-Hep)
[7] = read-out: Intrinsic Clearance Human
[8] = CL-Hep, value in parentheses, read-out: Intrinsic Clearance Mouse (CL-Hep)
[9] = read-out: Intrinsic Clearance Mouse

Chain of ALK3/BMPR1A (P36894 24-532): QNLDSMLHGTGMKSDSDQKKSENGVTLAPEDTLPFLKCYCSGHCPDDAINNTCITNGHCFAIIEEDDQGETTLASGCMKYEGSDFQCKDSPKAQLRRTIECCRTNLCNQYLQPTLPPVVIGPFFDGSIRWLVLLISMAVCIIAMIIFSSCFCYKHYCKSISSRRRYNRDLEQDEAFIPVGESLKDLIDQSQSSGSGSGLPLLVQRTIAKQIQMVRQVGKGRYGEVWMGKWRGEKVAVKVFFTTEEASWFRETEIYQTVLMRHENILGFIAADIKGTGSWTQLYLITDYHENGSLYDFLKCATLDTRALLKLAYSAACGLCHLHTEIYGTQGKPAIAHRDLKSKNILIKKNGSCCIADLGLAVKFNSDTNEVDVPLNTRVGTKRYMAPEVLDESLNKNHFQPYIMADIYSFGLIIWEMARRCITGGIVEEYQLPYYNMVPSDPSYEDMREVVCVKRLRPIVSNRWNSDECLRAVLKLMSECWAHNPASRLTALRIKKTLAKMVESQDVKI
Chain of ALK1/ACVRL1 (P37023 22-503): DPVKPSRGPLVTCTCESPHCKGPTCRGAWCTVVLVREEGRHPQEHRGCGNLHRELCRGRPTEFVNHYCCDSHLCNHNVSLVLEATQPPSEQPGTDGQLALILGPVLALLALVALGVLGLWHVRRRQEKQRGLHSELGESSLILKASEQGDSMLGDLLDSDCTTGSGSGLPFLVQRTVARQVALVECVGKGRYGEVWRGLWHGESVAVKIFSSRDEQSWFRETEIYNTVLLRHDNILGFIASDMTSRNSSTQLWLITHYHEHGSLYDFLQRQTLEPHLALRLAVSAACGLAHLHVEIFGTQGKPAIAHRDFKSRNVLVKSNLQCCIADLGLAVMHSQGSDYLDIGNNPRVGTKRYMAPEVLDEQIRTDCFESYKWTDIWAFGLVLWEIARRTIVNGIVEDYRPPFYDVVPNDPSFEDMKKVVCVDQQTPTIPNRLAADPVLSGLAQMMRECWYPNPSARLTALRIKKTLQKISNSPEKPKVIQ

Row | SMILES | IC50 (ALK2 (R206H)) | IC50 (ALK2 (Q207D)) | IC50 (ALK1/ACVRL1; [3]) | IC50 (ALK3/BMPR1A; [4]) | IC50 (ALK2/ACVR1; [5]) | Protein Binding (% Free) Mouse (Protein binding, mouse) | CLint scaled [1, 6] | CLint scaled [1, 7] | CLint scaled [2, 8] | CLint scaled [2, 9] | Protein Binding (% Free) Human (Protein binding, human) | IC50 (ALK1/ACVRL1; Kinase Selectivity ALK1/ACVRL1) | IC50 (ALK3/BMPR1A) | IC50 (ALK2/ACVR1)
1 | Cc1cc(-c2cnc3cc(-c4ccc(C5C[C@@H](C)N[C@@H](C)C5)cc4)ccn23)c2cc(F)cc(F)c2n1 (stereo partly drawn) [Compound 1] | 60.9 nM | 68.1 nM | 880 nM | 28.5 nM | 54.2 nM | – | – | – | – | – | – | – | – | –
2 | Cc1cc(-c2cnc3cc(-c4ccc(N5CCCC6(CCCN6)C5)cc4)ccn23)c2cc(F)cc(F)c2n1 (stereo not drawn) [Compound 2] | 128 nM | 114 nM | 936 nM | 45 nM | 147 nM | – | – | – | – | – | – | – | – | –
3 | Cc1cc(-c2cnc3cc(-c4ccc(N5CCC6(CCCNC6)CC5)cc4)ccn23)c2cc(F)cc(F)c2n1 [Compound 3] | 1120 nM | 999 nM | 10300 nM | 332 nM | 1090 nM | – | – | – | – | – | – | – | – | –
4 | Cc1cc(-c2cnc3cc(-c4ccc(N5CCC6(CCNCC6)C5)cc4)ccn23)c2cc(F)cc(F)c2n1 [Compound 5] | 2510 nM | 1740 nM | 35300 nM | 1330 nM | 2370 nM | – | – | – | – | – | – | – | – | –
5 | Cc1cc(-c2cnc3cc(-c4ccc(N5CCC6(CCCNC6)C5)cc4)ccn23)c2cc(F)cc(F)c2n1 (stereo not drawn) [Compound 6] | 218 nM | 200 nM | 3460 nM | 19.9 nM | 171 nM | – | – | – | – | – | – | – | – | –
6 | Cc1cc(-c2cnc3cc(-c4ccc(N5CCC6(CCNC6)CC5)cc4)ccn23)c2cc(F)cc(F)c2n1 [Compound 7] | 1070 nM | 745 nM | 5950 nM | 434 nM | 770 nM | – | – | – | – | – | – | – | – | –
7 | Cc1cc(-c2cnc3cc(-c4ccc(N5CCC6(CCC6)C5)cc4)ccn23)c2cc(F)cc(F)c2n1 [Compound 8] | > 50000 nM | > 50000 nM | > 50000 nM | 43700 nM | > 50000 nM | – | – | – | – | – | – | – | – | –
8 | Cc1cc(-c2cnc3cc(-c4ccc(N5CCC6(CCC6)CC5)cc4)ccn23)c2cc(F)cc(F)c2n1 [Compound 9] | > 50000 nM | > 50000 nM | > 50000 nM | 40900 nM | > 50000 nM | – | – | – | – | – | – | – | – | –
9 | Cc1cc(-c2cnc3cc(N4CC5(CCNCC5)C4)ccn23)c2cc(F)cc(F)c2n1 [Compound 24] | 58.3 nM | 129 nM | 1250 nM | 5.2 nM | 57.8 nM | 1.08 % Free | 14 mL/min/kg | 46.3 mL/min/kg | < 32.9 mL/min/kg | < 49.5 mL/min/kg | 0.75 % Free | – | – | –
10 | c1ncc2scc(-c3cnc4cc(-c5ccc(C6CNCCN6)cc5)ccn34)c2n1 (stereo not drawn) [Compound 35] | 214 nM | 65.8 nM | 14200 nM | 9450 nM | 157 nM | – | – | – | – | – | – | – | – | –
11 | O=S(=O)(F)Oc1ccc(-c2cnc3cc(-c4ccc(N5CCOCC5)cc4)ccn23)c2ccccc12 [Compound 38] | 15000 nM | 10300 nM | – | – | – | – | – | – | – | – | – | > 30000 nM | 23100 nM | > 30000 nM

Further lines, with some results ahead:

Row | IC50 (ALK2 (R206H)) | IC50 (ALK2 (Q207D)) | IC50 (ALK1/ACVRL1; [3]) | IC50 (ALK3/BMPR1A; [4]) | IC50 (ALK2/ACVR1; [5]) | Protein Binding (% Free) Mouse (Protein binding, mouse) | CLint scaled [1, 6] | CLint scaled [1, 7] | CLint scaled [2, 8] | CLint scaled [2, 9] | Protein Binding (% Free) Human (Protein binding, human) | SMILES | IC50 (ALK1/ACVRL1; Kinase Selectivity ALK1/ACVRL1) | IC50 (ALK3/BMPR1A) | IC50 (ALK2/ACVR1)
12 | 25.5 nM | 24 nM | 386 nM | 2.52 nM | 29 nM | – | – | – | – | – | – | Cc1cc(-c2cnc3cc(-c4ccc(N5CCNC6(CCC6)C5)cc4)ccn23)c2cc(F)cc(F)c2n1 [Compound 4] | – | – | –
13 | < 5.1 nM | < 5.1 nM | < 5.1 nM | < 5.1 nM | < 5.1 nM | 1.91 % Free | 17.4 mL/min/kg | 139 mL/min/kg | 47.6 mL/min/kg | 101 mL/min/kg | 2.39 % Free | Cc1cc(-c2cnc3cc(-c4ccc(C5COCCCN5)cc4)ccn23)c2cc(F)ccc2n1 (stereo not drawn) [Compound 10] | – | – | –
14 | – | – | 23.5 nM | < 5.1 nM | – | 3.23 % Free | 17.4 mL/min/kg | – | – | – | 1.52 % Free | Cc1cc(-c2cnc3cc(-c4ccc(C5COCCN5)cc4)ccn23)c2cc(F)ccc2n1 (stereo not drawn) [Compound 11] | – | – | –
15 | < 5.1 nM | < 5.1 nM | 16 nM | < 5.1 nM | < 5.1 nM | 2.3 % Free | 16.6 mL/min/kg | 97.2 mL/min/kg | < 32.9 mL/min/kg | < 49.5 mL/min/kg | 1.85 % Free | Cc1cc(-c2cnc3cc(-c4ccc(C5COCCCN5)cc4)ccn23)c2cc(F)cc(F)c2n1 (stereo not drawn) [Compound 13] | – | – | –
16 | < 5.1 nM | < 5.1 nM | < 5.1 nM | < 5.1 nM | < 5.1 nM | 1.6 % Free | 16.5 mL/min/kg | 93 mL/min/kg | 50.3 mL/min/kg | 114 mL/min/kg | 0.76 % Free | Cc1cc(-c2cnc3cc(-c4ccc(C5COC(C)CN5)cc4)ccn23)c2ccccc2n1 (stereo not drawn) [Compound 14] | – | – | –
17 | < 5.1 nM | < 5.1 nM | 34.1 nM | < 5.1 nM | < 5.1 nM | 1.01 % Free | 15.7 mL/min/kg | 74 mL/min/kg | 38.1 mL/min/kg | 66.3 mL/min/kg | 1.26 % Free | Cc1cc(-c2cnc3cc(-c4ccc(C5COC(C)CN5)cc4)ccn23)c2cc(F)ccc2n1 (stereo not drawn) [Compound 15] | – | – | –
18 | < 5.1 nM | < 5.1 nM | 14.1 nM | < 5.1 nM | < 5.1 nM | 3.15 % Free | 15.9 mL/min/kg | 77.2 mL/min/kg | 53.3 mL/min/kg | 131 mL/min/kg | 3.74 % Free | Cc1cc(-c2cnc3cc(-c4ccc(C5COC(C)CN5)cc4)ccn23)c2cc(F)cc(F)c2n1 (stereo not drawn) [Compound 19] | – | – | –
19 | < 5.1 nM | < 5.1 nM | 23 nM | < 5.1 nM | < 5.1 nM | 1.36 % Free | 17.1 mL/min/kg | 117 mL/min/kg | 50.2 mL/min/kg | 114 mL/min/kg | 4.01 % Free | Cc1cc(-c2cnc3cc(-c4ccc(C5COCC(C)N5)cc4)ccn23)c2cc(F)ccc2n1 (stereo not drawn) [Compound 20] | – | – | –
20 | – | – | < 5.1 nM | < 5.1 nM | – | 6.24 % Free | 17.5 mL/min/kg | – | – | – | 3.05 % Free | Cc1cc(-c2cnc3cc(-c4ccc(C5COCCN5)cc4)ccn23)c2ccccc2n1 (stereo not drawn) [Compound 21] | – | – | –
21 | 96.7 nM | 35 nM | 447 nM | 55.1 nM | 68.8 nM | – | – | – | – | – | – | c1cc(-c2cnc3cc(-c4ccc(C5CNCCN5)cc4)ccn23)ccn1 (stereo not drawn) [Compound 30] | – | – | –
